Measured values from US7868026B2, “Therapeutic compounds” (Pfizer Inc., priority 2005, dated 2011).
pIC50, pKi: −log10 of the molar value. Where two headings read alike, the source gives them in different places.

Assays:
Assay type in all cases: biochemical
CYP3A4 [1] = biological target: T1, CYP3A4 (Homo sapiens, UniProt P08684); experiment: Determination of compound Kiapp against recombinant CYP3A4 enzyme (BFC fluorescent substrate)
Outline: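 Kiapp derived from initial velocities over the first 5 min of BFC (5 uM) oxidation, using Morrison's tight-binding equation for non-partial and Szedlacsek's for partial inhibitors. Inhibitor first pre-incubated ≥30 min with CYP3A4 (5.5 or 8 nM, ±b5) in pH 7.0 phosphate/TCEP/2% DMF at room temperature; 200 uM NADPH initiated.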

CYP3A4 [2] = biological target: T1, CYP3A4; experiment: Determination of IC50 against CYP3A4 by measurement of inhibition of testosterone metabolism (human liver microsomes, 6-β-OH-testosterone by LC-MS/MS); set-up: 0.1 mg/mL human liver microsomes; conditions: read-out: IC50 (Testo.)
Outline: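 6-β-OH-testosterone formation was read by LC-MS/MS (MRM, internal standard, standard curve) after eight minutes. Reaction contained testosterone 25 μM, NADPH 1 mM and microsomal protein 0.1 mg/mL in pH 7.4 potassium phosphate (100 mM).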

CYP3A4 [3] = biological target: T1, CYP3A4; experiment: Determination of IC50 against CYP3A4 by measurement of inhibition of midazolam metabolism (human liver microsomes, 1-hydroxymidazolam by LC-MS/MS); set-up: 0.1 mg/mL human liver microsomes; conditions: 2 μM midazolam, 0.1 mg/mL human liver microsomes
Outline: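 Human liver microsomes (0.1 mg/mL) incubated 8 min with 2 μM midazolam and 1 mM NADPH in 100 mM potassium phosphate, pH 7.4. 1-Hydroxymidazolam quantified by LC-MS/MS (MRM) as peak area ratio to internal standard against a metabolite standard curve.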

[4] = Baculo. enzyme preparation, read-out: Kiapp (BFC, Baculo.)
[5] = Super. enzyme preparation, read-out: Kiapp (BFC, Super.)

T1 sequence (P08684 whole entry): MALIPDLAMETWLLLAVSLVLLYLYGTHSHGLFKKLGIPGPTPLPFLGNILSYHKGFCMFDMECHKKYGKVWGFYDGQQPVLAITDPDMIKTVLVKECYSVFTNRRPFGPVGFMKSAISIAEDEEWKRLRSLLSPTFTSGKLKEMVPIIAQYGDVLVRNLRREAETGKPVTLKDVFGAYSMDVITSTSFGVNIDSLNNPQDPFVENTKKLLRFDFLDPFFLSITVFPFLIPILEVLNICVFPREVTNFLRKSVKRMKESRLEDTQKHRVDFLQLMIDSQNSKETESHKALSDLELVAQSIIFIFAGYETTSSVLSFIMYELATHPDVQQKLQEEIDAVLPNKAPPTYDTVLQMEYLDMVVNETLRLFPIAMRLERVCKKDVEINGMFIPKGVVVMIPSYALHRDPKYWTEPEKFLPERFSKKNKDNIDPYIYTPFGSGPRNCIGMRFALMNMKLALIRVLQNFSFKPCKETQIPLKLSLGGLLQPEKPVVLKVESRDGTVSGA

Row | SMILES | pKi (CYP3A4 [1]; [4]) | pKi (CYP3A4 [1]; [5]) | pIC50 (CYP3A4 [2]) | pIC50 (CYP3A4 [3])
1 | COc1cncc(NS(=O)(=O)c2ccccc2C(=O)NC(C)CC(C)C)c1 (centres unmarked) [Example 204, N-(1,3-dimethylbutyl)-2-{[(5-methoxypyridin-3-yl)amino]sulfonyl}benzamide] | 7.28 | 7.90 | 7.92 | > 8.52
2 | COc1cncc(NS(=O)(=O)c2ccc(OCCN3CCOCC3)cc2C(=O)NCc2ccc(F)cc2)c1 [Example 265, N-(4-fluorobenzyl)-2-{[(5-methoxypyridin-3-yl)amino]sulfonyl}-5-(2-morpholin-4-ylethoxy)benzamide] | 7.53 | 7.90 | 7.39 | 7.64
3 | CCCCCNC(=O)c1ccccc1S(=O)(=O)Nc1cccnc1 [Example 61, N-pentyl-2-[(pyridin-3-ylamino)sulfonyl]benzamide] | 6.88 | 8.11 | 7.52 | 7.57
4 | COc1cncc(NS(=O)(=O)c2ccccc2C(=O)N2CCC(OC)CC2)c1 [Example 366, 2-[(4-methoxypiperidin-1-yl)carbonyl]-N-(5-methoxypyridin-3-yl)benzenesulfonamide] | 6.26 | 7.19 | < 6.12 | 6.60
5 | COc1cncc(NS(=O)(=O)c2ccccc2C(=O)NCc2cccc(Cl)c2)c1 [Example 192, N-(3-chlorobenzyl)-2-{[(5-methoxypyridin-3-yl)amino]sulfonyl}benzamide] | 7.63 | 8.57 | 8.15 | 8.15
6 | COc1cncc(NS(=O)(=O)c2ccc(Cl)cc2C(=O)NCc2ccc(F)cc2)c1 [Example 310, 5-chloro-N-(4-fluorobenzyl)-2-{[(5-methoxypyridin-3-yl)amino]sulfonyl}benzamide] | 6.85 | 7.55 | 7.19 | 7.28
7 | COc1cncc(NS(=O)(=O)c2ccc(Cl)cc2C(=O)N(C)C(C)C)c1 [Example 309, 5-chloro-N-isopropyl-2-{[(5-methoxypyridin-3-yl)amino]sulfonyl}-N-methylbenzamide] | 6.09 | 6.84 | 6.37 | 6.83
8 | O=C(NCc1ccc(F)cc1)c1ccccc1S(=O)(=O)Nc1cccnc1 [Example 9, N-(4-fluorobenzyl)-2-[(pyridin-3-ylamino)sulfonyl]benzamide] | 6.76 | 8.40 | 8.05 | 7.96
9 | CC1CCN(CC(C)(C)NC(=O)c2ccccc2S(=O)(=O)Nc2cccnc2)CC1 [Example 1, N-[1,1-dimethyl-2-(4-methylpiperidin-1-yl)ethyl]-2-[(pyridin-3-ylamino)sulfonyl]benzamide] | 6.27 | 6.18 | > 8.52 | 6.41
10 | COc1cncc(NS(=O)(=O)c2ccccc2C(=O)NC(C)C(C)C)c1 (centres unmarked) [Example 313, N-(1,2-dimethylpropyl)-2-{[(5-methoxypyridin-3-yl)amino]sulfonyl}benzamide] | 6.71 | 7.31 | 7.26 | 7.72
11 | COc1cncc(NS(=O)(=O)c2ccccc2C(=O)NC(C)(C)c2ccccc2)c1 [Example 381, 2-{[(5-methoxypyridin-3-yl)amino]sulfonyl}-N-(1-methyl-1-phenylethyl)benzamide] | 7.28 | 8.55 | 7.19 | 7.52
12 | COc1cncc(NS(=O)(=O)c2ccccc2C(=O)NC(C)(C)C)c1 [Example 374, N-(tert-butyl)-2-{[(5-methoxypyridin-3-yl)amino]sulfonyl}benzamide] | 6.32 | 7.13 | 7.10 | 7.54
13 | COc1cncc(NS(=O)(=O)c2ccccc2C(=O)NCC2(O)C3CC4CC(C3)CC2C4)c1 (centres unmarked) [Example 188, N-[(2-hydroxy-2-adamantyl)methyl]-2-{[(5-methoxypyridin-3-yl)amino]sulfonyl}benzamide] | 7.44 | 8.47 | 7.92 | 8.10
14 | O=C(c1ccccc1S(=O)(=O)Nc1cccnc1)N1CC2(CCNCC2)C1 [Example 7, 2-(2,7-diazaspiro[3.5]non-2-ylcarbonyl)-N-pyridin-3-ylbenzenesulfonamide] | < 6.00 | < 6.00 | < 6.12 | < 6.12
15 | CCC(CC)NC(=O)c1ccccc1S(=O)(=O)Nc1cncc(OC)c1 [Example 193, N-(1-ethylpropyl)-2-{[(5-methoxypyridin-3-yl)amino]sulfonyl}benzamide] | 7.39 | 7.66 | 7.57 | 7.89
16 | CC1CC(C)CN(C(=O)c2ccccc2S(=O)(=O)N(C)c2cccnc2)C1 (centres unmarked) [Example 358, 2-[(3,5-dimethylpiperidin-1-yl)carbonyl]-N-methyl-N-pyridin-3-ylbenzenesulfonamide] | 6.23 | 6.86 | 7.00 | 7.17
17 | COc1cncc(NS(=O)(=O)c2ccccc2C(=O)N(C)Cc2ccccc2)c1 [Example 372, N-benzyl-2-{[(5-methoxypyridin-3-yl)amino]sulfonyl}-N-methylbenzamide] | 7.10 | 7.74 | 7.64 | 7.82
18 | COCCNC(=O)c1ccccc1S(=O)(=O)Nc1cncc(OC)c1 [Example 239, N-(2-methoxyethyl)-2-{[(5-methoxypyridin-3-yl)amino]sulfonyl}benzamide] | 6.07 | 6.72 | 6.52 | 6.79
19 | COC[C@H](C)NC(=O)c1ccccc1S(=O)(=O)Nc1cncc(OC)c1 [Example 382, N-[(1S)-2-methoxy-1-methylethyl]-2-{[(5-methoxypyridin-3-yl)amino]sulfonyl}benzamide] | 6.30 | 7.70 | 6.58 | 7.17
20 | COc1cncc(NS(=O)(=O)c2ccc(OC3CCNCC3)cc2C(=O)N(C)C(C)C)c1 [Example 243, N-isopropyl-2-{[(5-methoxypyridin-3-yl)amino]sulfonyl}-N-methyl-5-(piperidin-4-yloxy)benzamide] | 7.55 | 7.07 | 6.58 | 7.16
21 | Cc1cncc(NS(=O)(=O)c2ccccc2C(=O)N(C)Cc2ccc(F)c(F)c2)c1 [Example 286, N-(3,4-difluorobenzyl)-N-methyl-2-{[(5-methylpyridin-3-yl)amino]sulfonyl}benzamide] | 7.57 | 8.39 | 8.02 | 8.12
22 | O=C(NCc1ccccc1)c1ccccc1S(=O)(=O)Nc1cccnc1 [Example 12, N benzyl-2-[(pyridin-3-ylamino)sulfonyl]benzamide] | 6.57 | 7.98 | 7.54 | 7.51
23 | COc1cncc(NS(=O)(=O)c2ccccc2C(=O)N2CCOCC2)c1 [Example 367, N-(5-methoxypyridin-3-yl)-2-(morpholin-4-ylcarbonyl)benzenesulfonamide] | 6.24 | 6.83 | < 6.12 | 6.50
24 | CN(c1cccnc1)S(=O)(=O)c1ccccc1C(=O)NCC(C)(C)C [Example 359, N-(2,2-dimethylpropyl)-2-{[methyl(pyridin-3-yl)amino]sulfonyl}benzamide] | 6.23 | 6.85 | 6.59 | 7.00
25 | CC(C)(C)CNC(=O)c1ccccc1S(=O)(=O)Nc1cccnc1 [Example 44, N-(2,2-dimethylpropyl)-2-[(pyridin-3-ylamino)sulfonyl]benzamide] | 6.21 | – | 6.78 | 7.14
26 | CCOc1ccncc1NS(=O)(=O)c1ccccc1C(=O)NCc1ccc(F)c(F)c1 [Example 252, N-(3,4-difluorobenzyl)-2-{[(4-ethoxypyridin-3-yl)amino]sulfonyl}benzamide] | 7.77 | 8.27 | 8.05 | 8.05
27 | Cc1cncc(NS(=O)(=O)c2ccccc2C(=O)N(C)Cc2ccccc2)c1 [Example 335, N-benzyl-N-methyl-2-{[(5-methylpyridin-3-yl)amino]sulfonyl}benzamide] | 7.01 | 7.77 | 7.55 | 7.70
28 | COc1ccncc1NS(=O)(=O)c1ccccc1C(=O)NCCC(C)C [Example 277, 2-{[(4-methoxypyridin-3-yl)amino]sulfonyl}-N-(3-methylbutyl)benzamide] | 6.34 | 7.32 | 7.19 | 7.28
29 | CN(c1cccnc1)S(=O)(=O)c1ccccc1C(=O)NCc1cccc(F)c1 [Example 357, N-(3-fluorobenzyl)-2-{[methyl(pyridin-3-yl)amino]sulfonyl}benzamide] | 6.91 | 7.52 | 7.37 | 7.49
30 | CCOc1cncc(NS(=O)(=O)c2ccccc2C(=O)NC2CCCC2)c1 [Example 287, N-cyclopentyl-2-{[(5-ethoxypyridin-3-yl)amino]sulfonyl}benzamide] | 6.67 | 7.32 | 7.00 | 7.37
